From ChEMBL document CHEMBL3244029, “Synthesis and stereospecific antipsychotic activity of (-)-1-cyclopropylmethyl-4-(3-trifluoromethylthio-5H-dibenzo[a,d]cyclohepten-5-ylidene)piperidine” (J Med Chem, 1977)
Active and inactive are the calls of the source. No cut-off for these calls is given here.

Assays:
Mus musculus [1] = assay: Central anticholinergic activity against physostigmine-induced lethality in Carworth CF1 mouse assessed as animal death at 10 mg/kg, po treated 5 hrs before 1.6 mg/kg, sc physostigmine treatment and 2 mg/kg, ip atropine methyl nitrate treated 0.5 hrs before induction (reference value: 0%); format: functional
Mus musculus [2] = assay: Peripheral anticholinergic activity in po dosed Carworth CF1 mouse assessed as dose required to produce pupil dilation to 1.5 micrometer units in 50% mouse after 2 hrs; format: ADME, organism-based; details: in vivo
Saimiri [3] = assay: Antipsychotic activity in po dosed squirrel monkey assessed as inhibition of conditioned avoidance response measured as maximum number of shocks; format: functional; details: Saimiri, in Primates, po; read-out: ED50
Saimiri [4] = assay: Antipsychotic activity in squirrel monkey assessed as inhibition of conditioned avoidance response at 9 mg/kg, po; format: functional, organism-based; set-up: dose 9 mg/kg
Saimiri [5] = assay: Antipsychotic activity in squirrel monkey assessed as inhibition of conditioned avoidance response measured as maximum number of shocks possible per 30 mins interval at 1 mg/kg, po after 0 to 30 mins dosing; format: functional
Saimiri [6] = assay: Antipsychotic activity in squirrel monkey assessed as inhibition of conditioned avoidance response measured as maximum number of shocks possible per 30 mins interval at 1 mg/kg, po after 30 to 60 mins dosing; format: functional
Saimiri [7] = assay: Antipsychotic activity in squirrel monkey assessed as inhibition of conditioned avoidance response measured as maximum number of shocks possible per 30 mins interval at 1 mg/kg, po after 60 to 90 mins dosing; format: functional
Saimiri [8] = assay: Antipsychotic activity in squirrel monkey assessed as inhibition of conditioned avoidance response measured as maximum number of shocks possible per 30 mins interval at 3 mg/kg, po after 90 to 120 mins dosing; format: functional
Saimiri [9] = assay: Antipsychotic activity in squirrel monkey assessed as inhibition of conditioned avoidance response measured as maximum number of shocks possible per 30 mins interval at 3 mg/kg, po after 120 to 150 mins dosing; format: functional
Saimiri [10] = assay: Antipsychotic activity in squirrel monkey assessed as inhibition of conditioned avoidance response measured as maximum number of shocks possible per 30 mins interval at 3 mg/kg, po after 150 to 180 mins dosing; format: functional

CN1CCC(=C2c3ccccc3C=Cc3ccccc32)CC1 [CYPROHEPTADINE]
Activity (Mus musculus [1]): 0% | ED (Mus musculus [2]): 6 mg/kg

CSc1ccc2c(c1)N(CCC1CCCCN1C)c1ccccc1S2.Cl (stereo not given) [THIORIDAZINE HYDROCHLORIDE]
ED50 (Saimiri [3]): 0.97 mg/kg

CN1CCC(=C2c3ccccc3C=Cc3ccc(SC(F)(F)F)cc32)CC1
inhibition (Saimiri [4]): inactive | %max (Saimiri [5]): 0% | %max (Saimiri [6]): 0.66% | %max (Saimiri [7]): 8% | %max (Saimiri [8]): 77.4% | %max (Saimiri [9]): 100% | %max (Saimiri [10]): 100%
